{"source": "patent US20090291857A1", "about": "“METHODS TO IDENTIFY INHIBITORS OF THE UNFOLDED PROTEIN RESPONSE” (THE BOARD OF TRUSTEES OF THE LELAND STANFORD JUNIOR …, priority 2006, published 2009)", "key": {"[1]": {"test_system": "HT1080 fibrosarcoma", "assay": "Cell proliferation assay, HT1080", "assay_type": "cell-based, human", "settings": "same concentrations", "experimental": "A. Effect of irestatin 9389 on PERK and ATF6 pathways. HT1080 cells were treated with vehicle alone (lanes 1-4) or 2.5 μM irestatin 9389 (lanes 5-8) and cultured under aerobic conditions for 18 hours (N) or shifted to hypoxia for the indicated times. Protein lysates were analyzed by Western blot analysis using antisera specific for ATF6 (top), CHOP/GADD153 (middle) or actin (bottom). Arrow indicates the cleaved, transcriptionally active form of ATF6. B. Cleavage of caspase-3 in irestatin-treated cells under hypoxia. HT1080 cells were cultured in normoxia (N) or under hypoxia for 36 hours (H 36) in absence or presence of irestatin 9389 (2.5 μM). Arrows indicate proteolytically cleaved caspase-3. C. Colony formation assay. HT1080 cells were treated as in B under normoxia (N) or hypoxia for 48 hours (H 48). Cells were harvested, counted, and allowed to grow under normal culture conditions for 11-12 days. Colonies were visualized with crystal violet staining. D. Quantification of clonogenic survival assay. Values represent the mean+/−SEM from at least 4 independent experiments. E. TUNEL staining of cells treated as in C. F. Quantification of TUNEL-positive cells. Values represent the mean+/−SEM from at least 3 experiments. […] Cells were harvested at the indicated times and counted by hemocytometer. Values represent the mean calculated from triplicate experiments +/−SEM. […]"}, "[2]": {"test_system": "P58^IPK and DER-1", "assay": "Northern blot analysis of XBP-1s transcription targets", "assay_type": "cell-based, human", "settings": "2 μM, Tm or hypoxia 24 hours", "experimental": "Cells were cultured in 10 cm plates, harvested, and total RNA recovered with Trizol (Invitrogen, San Diego, Calif.). Total RNA (10 μg) was resolved on a 1% agarose-formaldehyde gel. ^32P-labeled probes were prepared using the Rediprime II random-prime labeling kit (GE-Amersham, Buckinghamshire, UK). The primers used to PCR amplify probes are as follows. P58^IPK: 5′[…] 3′ (SEQ ID NO: 4); 5′ […] 3′ (SEQ ID NO: 5). DER-1: 5′ […] 3′ (SEQ ID NO: 6); 5′[…] 3′ (SEQ ID NO: 7). Blots were incubated with probe overnight, washed three times in 2×SSC/0.2% SDS, dried, and exposed to a phosphorimager screen overnight. Images were analyzed using ImageQuant software (Molecular Dynamics).\nA. XBP-luciferase reporter construct. Firefly luciferase was inserted downstream of the IRE1α splice site in human XBP-1 to enable the conditional translation of luciferase under ER stress in an IRE1α-dependent manner. […] After 24 hours, luciferase activity was analyzed in an automated plate reader. For each cell line, values are expressed as the percent inhibition of the median for Tm/Tg-treated wells, corrected for background. […] Values are expressed as the fold increases over uninduced levels. […] Cells were harvested, lysed, and analyzed by immunoblotting with antisera specific for HIF-1α (top), XBP-1s (middle) or actin (bottom). […] Total RNA was analyzed by Northern blotting using radiolabeled probes specific for P58^IPK or DER-1. […]"}}, "data": [{"smiles": "Cc1csc(NC(=O)CSc2nc3c(c(C(F)(F)F)c2C#N)CCC3)n1", "note": "[Compound 9389]", "values": [{"measurement": "growth rate of HT1080 cells under normal conditions", "setting": "[1]", "value": "negligible effect"}, {"measurement": "induction of P58^IPK and DER-1 expression", "setting": "[2]", "value": "fully inhibited this response"}]}]}
